# Target: T1, dopamine transporter (Rattus norvegicus, UniProt P23977)
# T1 construct: Synaptosomes were prepared by homogenizing fresh tissue in 20 volumes of ice-cold 0.32 M sucrose; from tissue; host or cells: striatal (caudate nucleus) synaptosomes from fresh brain tissue
# Assay: Test B: uptake of [3H]dopamine and [3H]serotonin into striatal synaptosomes
# Assay type: biochemical
# Settings: dopamine vs serotonin transporter
# Description: Uptake of [^3H]dopamine and [^3H]serotonin was carried out using synaptosomes from the same brain regions as described above for binding assays. A Krebs phosphate buffer, pH 7.4, containing 1 μM pargyline, dextrose (1.9 mg/ml), and ascorbic acid (0.2 mg/ml) was used. Synaptosomes were prepared by homogenizing fresh tissue in 20 volumes of ice-cold 0.32 M sucrose using a glass-teflon homogenizer. Nuclei and large tissue fragments were removed by centrifugation at 800×g for 10 minutes. The supernatant was centrifuged at 20,000×g for 15 minutes to collect synaptosomes in a pellet. The pellet was resuspended in 0.32 M sucrose at a concentration of 15, 100 or 10 mg/ml original wet weight, and diluted 10 fold in the assay tubes. The final assay volume was 1.0 ml and the duration of incubation at 30° C. was 3 minutes so that uptake was inear with time in contrast to binding assays where binding had reached equilibrium.
# Ki values were determined using serial dilutions of the analogues. A thirty minute preincubation of the analogues with the tissue was utilized before uptake was initiated by adding tritiated substrate. The preincubation was utilized to allow analogue and transporters to reach an equilibrium so that kinetic effects were not a significant factor. Ki values were determined using standard techniques.
# T1 sequence (P23977 whole entry): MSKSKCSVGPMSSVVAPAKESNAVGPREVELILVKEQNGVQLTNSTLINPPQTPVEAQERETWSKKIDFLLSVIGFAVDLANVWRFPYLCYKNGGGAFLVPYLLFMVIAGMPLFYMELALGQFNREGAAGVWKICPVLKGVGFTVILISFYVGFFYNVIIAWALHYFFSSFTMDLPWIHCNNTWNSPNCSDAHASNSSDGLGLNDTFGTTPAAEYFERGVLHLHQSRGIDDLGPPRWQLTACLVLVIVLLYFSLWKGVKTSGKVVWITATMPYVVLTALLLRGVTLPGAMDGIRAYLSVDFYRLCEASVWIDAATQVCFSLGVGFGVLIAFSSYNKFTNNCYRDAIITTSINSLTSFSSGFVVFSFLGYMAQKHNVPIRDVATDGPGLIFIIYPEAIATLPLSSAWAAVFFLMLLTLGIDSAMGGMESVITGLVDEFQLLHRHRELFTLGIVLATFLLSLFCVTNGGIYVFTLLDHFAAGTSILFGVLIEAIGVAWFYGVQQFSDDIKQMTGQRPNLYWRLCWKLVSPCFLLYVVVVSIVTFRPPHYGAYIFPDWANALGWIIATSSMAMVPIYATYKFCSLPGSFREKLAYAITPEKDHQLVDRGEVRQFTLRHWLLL
row,SMILES,selectivity for the dopamine transporter relative to the serotonin transporter
1,"Cc1ccc([C@@H]2C[C@@H]3CC[C@H]([C@H]2c2ccccc2)N3C)cc1 [compound 37, (1R, 5S)-2β-Phenyl-3α-(p-tolyl)tropane]",highly selective
2,"CN1[C@H]2CC[C@@H]1[C@@H](c1ccccc1)[C@H](c1ccccc1)C2 [compound 49, (1R,5S)-2β-Phenyl-3α-phenyltropane]",highly selective
